Assay results as given in paper PMC7717120 (Bioorganic & medicinal chemistry letters, 2015).
“Also recorded” adds a separate entry of the source.

Assays:
HIV-1 = type: cell-based
primary human PBM cells = experiment: Cytotoxicity in primary human PBM cells; type: cell-based
Vero cells = experiment: Cytotoxicity in Vero cells; type: cell-based, African Green monkey

Row | SMILES | Anti-HIV-1 activity (in words) (HIV-1) | Toxicity in primary human PBM cells (in words) (primary human PBM cells) | Toxicity in Vero cells (in words) (Vero cells) | Toxicity in CEM cells (in words) (CEM cells)
1 | Cc1ccc(CNC(=O)Cn2nc3c(c2C)N(C)S(=O)(=O)c2ccccc2-3)cc1 [Compound 6i] | active | no toxicity | no toxicity | no toxicity
2 | Cc1c2c(nn1CC(=O)NCc1ccccc1Br)-c1ccccc1S(=O)(=O)N2C [Compound 6d] | active |  | toxic | toxic
3 | Cc1c2c(nn1CC(=O)NCc1ccccc1Cl)-c1ccccc1S(=O)(=O)N2C [Compound 6a] | active | no toxicity | toxic; also recorded: displayed toxicity | no toxicity
4 | COc1ccc(CNC(=O)Cn2nc3c(c2C)N(C)S(=O)(=O)c2ccccc2-3)cc1 [Compound 6g] | active | no toxicity | no toxicity | no toxicity
5 | COc1ccccc1CNC(=O)Cn1nc2c(c1C)N(C)S(=O)(=O)c1ccccc1-2 [Compound 6e] | active | no toxicity | no toxicity | no toxicity
6 | Cc1c2c(nn1CC(=O)Nc1ccccc1)-c1ccccc1S(=O)(=O)N2C [Compound 7a] | effective inhibitors; also recorded: active |  |  | 
7 | Cc1c2c(nn1CC(=O)Nc1ccccc1F)-c1ccccc1S(=O)(=O)N2C [Compound 7b] | effective inhibitors; also recorded: active |  |  | 
8 | Cc1c2c(nn1CC(=O)Nc1cccc(Br)c1)-c1ccccc1S(=O)(=O)N2C [Compound 7d] | effective inhibitors; also recorded: active |  |  | 
9 | Cc1c2c(nn1CC(=O)Nc1ccccc1Br)-c1ccccc1S(=O)(=O)N2C [Compound 7c] | effective inhibitors; also recorded: active |  |  | 
10 | Cc1c2c(nn1CC(=O)NCc1ccc(F)cc1)-c1ccccc1S(=O)(=O)N2C [Compound 6c] |  |  |  | toxic
11 | COc1cccc(NC(=O)Cn2nc3c(c2C)N(C)S(=O)(=O)c2ccccc2-3)c1 [Compound 7e] | effective inhibitors; also recorded: active |  | no toxicity | 
12 | COc1cccc(CNC(=O)Cn2nc3c(c2C)N(C)S(=O)(=O)c2ccccc2-3)c1 [Compound 6f] |  | toxic | toxic | toxic
